Assay results from US7232828B2, “PPAR Ligands that do not cause fluid retention, edema or congestive heart failure” (Bethesda Pharmaceuticals, Inc., priority 2002, dated 2007).
Entries after “also recorded” stand apart in the source; their conditions may differ. Read-outs that look alike come from different tables or passages of the source.

Columns and labels:
[1] = patients with mild hypertension; cited from earlier work
PPARγ = target: T1, PPARγ (Homo sapiens, UniProt P37231); assay: PPARγ transactivation assay in transfected CV-1 cells (luciferase reporter); assay type: cell-based; conditions: for Activation of PPARγ (in words): at doses reasonably achievable at therapeutic doses
T1 construct: expressed in transfected cells; host or cells: CV-1 cells (CCL-70, ATCC)
T1 sequence (P37231 1-505): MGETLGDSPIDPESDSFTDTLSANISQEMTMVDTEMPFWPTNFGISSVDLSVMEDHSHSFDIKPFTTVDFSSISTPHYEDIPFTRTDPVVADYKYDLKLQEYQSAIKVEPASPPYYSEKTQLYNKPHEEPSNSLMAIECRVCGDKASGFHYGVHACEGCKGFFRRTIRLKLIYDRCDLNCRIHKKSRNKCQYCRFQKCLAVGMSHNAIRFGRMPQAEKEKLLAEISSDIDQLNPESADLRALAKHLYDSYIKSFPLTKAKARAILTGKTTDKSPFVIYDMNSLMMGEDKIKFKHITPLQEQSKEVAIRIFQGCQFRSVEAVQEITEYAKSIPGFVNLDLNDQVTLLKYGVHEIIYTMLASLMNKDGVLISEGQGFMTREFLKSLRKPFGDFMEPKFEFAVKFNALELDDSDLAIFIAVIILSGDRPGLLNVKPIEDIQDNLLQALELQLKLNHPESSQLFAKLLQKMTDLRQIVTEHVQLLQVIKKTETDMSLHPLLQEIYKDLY
Procedure: ARBs, or derivatives thereof, may be tested for their ability to activate the various PPAR isoforms by utilizing standard screening methods known to those skilled in the art including but not limited to cell based transactivation assays or cell free assays that test the ability of a compound to activate a PPAR construct by measuring the output of a reporter signal that reflects the extent of the PPAR activation. For example, the angiotensin receptor blocker telmisartan is added to the culture media of CV1 cells or other cells that can be transfected with a full length or partial PPAR cDNA sequence together with a reporter construct containing a PPAR response element or other appropriate response element fused to a reporter gene such as luciferase. […] Cell extracts were assayed for luciferase and β-galactosidase activity using Promega (Madison, Wis.) assay systems. All treatments were performed in triplicate, and normalized for β-galactosidase activity. Agonist concentrations yielding half maximal activation (EC50 values) were calculated using GraphPad Prism version 3.03 (GraphPad Software, Inc., San Diego, Calif.).

[2] = system: mouse preadipocyte cell line (3T3-L1); assay: In vitro adipocyte differentiation (adipogenesis) activity; assay type: cell-based
Procedure: The following examples 2 and 3 provide a generic means to measure adipocyte differentation to determine if one has an insulin-sensitizing agent. […] The cells are then plated at 1.5×10^4/cm^2 in a 96-well tissue culture plate (view plate, 96 white, Packard) coated with type 1 collagen. […] The compounds added from a stock solution of dimethyl sulfoxide (DMSO). […] DMSO (0.1%) was added to the control cultures. The medium was replaced with maintenance medium (DMEM supplemented with 5% of FBS and 100 ng/mL of insulin), and the cells cultured for 2 more days. Activity of stimulation of adipogenesis was determined by exposure of the cells to [14-C]-acetic acid (7.4 kBq/mL), and uptake of [14-C]-acetic acid monitored after 1 h of incubation. The medium is discarded and the cells washed twice with phosphate-buffered saline. The cells are air-dried, and […] of scintillation cocktail (Microscint-20, Packard) added to the wells, and counted with a Packard TopCount microplate scintillation counter.

[3] = assay type: in vivo, human
Source text: Insulin resistance is defined as a state in which circulating insulin levels in excess of the normal response to a glucose load are required to maintain the euglycemic state (Ford ES, et al. JAMA. (2002) 287:356-9). Insulin resistance, and the response of a patient with insulin resistance to therapy, may be quantified by assessing the homeostasis model assessment to insulin resistance (HOMA-IR) score, a reliable indicator of insulin resistance (Katsuki A, et al. Diabetes Care 2001;24:362-5). The estimate of insulin resistance by the homeostasis assessment model (HOMA)-IR score is calculated with the formula (Galvin P, et al. Diabet Med 1992;9:921-8): HOMA-IR=[fasting serum insulin (μU/mL)]×[fasting plasma glucose (mmol/L)/22.5]
A person with the metabolic syndrome was selected for therapy. […] The patient has the metabolic syndrome as defined by the National Cholesterol Education Program. The metabolic syndrome is associated with a 5-9 fold increase in the risk for developing type 2 diabetes and a 2-3 fold increase risk in cardiovascular mortality.

[4] = Clinical trial in a patient with osteoarthritis and inflammation (elevated CRP); assay type: in vivo, human; conditions: for Serum CRP level: baseline 7.9
Source text: A person with osteoarthritis and inflammation as judged by elevated C-reactive protein (CRP) levels was selected for therapy.

[5] = conventional oral dosing; cited from earlier work
[6] = Clinical trial in a patient with hypertension, hypertriglyceridemia and type 2 diabetes
[7] = obese Zucker rat, oral, extremely high dose; cited from earlier work
human preadipocytes = conditions: high concentrations; cited from earlier work
[8] = 160 mg/day oral, after seven weeks

CCCCc1nc(Cl)c(CO)n1Cc1ccc(-c2ccccc2-c2nn[nH]n2)cc1 [losartan]
Effect on glucose metabolism, insulin sensitivity, and serum concentrations [1]: neutral effect

CCCCC(=O)N(Cc1ccc(-c2ccccc2-c2nnn[nH]2)cc1)[C@H](C(=O)O)C(C)C [valsartan]
Activation of PPARγ (in words) (PPARγ): do not activate PPARγ | Promotion of adipogenesis (in words) [2]: did not promote adipogenesis

CCCc1nc2c(C)cc(-c3nc4ccccc4n3C)cc2n1Cc1ccc(-c2ccccc2C(=O)O)cc1 [telmisartan]
Activation of PPARγ / luciferase reporter gene activity (in words) (PPARγ): can activate PPARγ; also recorded: significant increase in reporter gene activity | EC50 (PPARγ): 5.6 µM | PPARγ activation relative to maximum level of activity achieved by full agonists pioglitazone and rosiglitazone (PPARγ; CV-1 cells): 25%-30% | PPARγ activation (fold) (PPARγ; tested at 1-5 μM, CV-1 cells, 24 hr): 5-8 fold | Promotion of adipogenesis (in words) [2]: promote adipogenesis | Diagnostic criteria of the metabolic syndrome (NCEP) ([3]; 80 mg/day oral, after two weeks): no longer meets the diagnostic criteria of the metabolic syndrome | Fasting glucose ([3]; 80 mg/day oral, after two weeks, baseline 118): 105 mg/dL | Fasting triglyceride level ([3]; 80 mg/day oral, after two weeks, baseline 129): 115 mg/dL | Blood pressure ([3]; 80 mg/day oral, after two weeks, baseline 160/79): 130/69 | Insulin resistance as determined by HOMA-IR score (in words) ([3]; patient with the metabolic syndrome): improved insulin resistance | Serum CRP level ([4]; 80 mg/day oral, after 6 weeks): 4.1 mg/L | Symptoms of inflammation and osteoarthritis ([4]; 80 mg/day oral, after 9 weeks): stabilized | Serum CRP level ([4]; 80 mg/day oral, after 9 weeks): 3.9 mg/L | Fluid retention, peripheral edema, pulmonary edema, congestive heart failure on clinical examination ([4]; osteoarthritis patient, 80 mg/day): no evidence of any increase in fluid retention, peripheral edema, pulmonary edema, or congestive heart failure | Concentrations that can be achieved in plasma [5]: 1 to 5 µM | HDL cholesterol ([6]; 80 mg/day oral, after three weeks, baseline 48): 50 mg/dL | Blood pressure ([6]; 80 mg/day oral, after three weeks, baseline 160/90): 143/91 | Fasting glucose ([6]; 80 mg/day oral, after three weeks, baseline 183): 188 mg/dL | Triglyceride ([6]; 80 mg/day oral, after three weeks, baseline 264): 281 mg/dL | Blood pressure [6, 8]: 131/81 | Glucose level [6, 8]: 145 mg/dL | HDL cholesterol [6, 8]: 60 mg/dL | Triglyceride level [6, 8]: 178 mg/dL | Blood HDL-cholesterol (in words) ([6]; patient with type 2 diabetes): elevated blood HDL-cholesterol | Hyperglycemia (in words) ([6]; patient with type 2 diabetes): lowered the hyperglycemia | Plasma triglycerides (in words) ([6]; patient with type 2 diabetes): lowers plasma triglycerides | Fluid retention, peripheral edema, pulmonary edema, congestive heart failure on clinical examination ([6]; type 2 diabetes patient, 160 mg/day): no evidence of any increase in fluid retention, peripheral edema, pulmonary edema, or congestive heart failure

CCCCc1ncc(/C=C(\Cc2cccs2)C(=O)O)n1Cc1ccc(C(=O)O)cc1 [eprosartan]
Activation of PPARγ (in words) (PPARγ): do not activate PPARγ | Promotion of adipogenesis (in words) [2]: did not promote adipogenesis

CCCCC1=NC2(CCCC2)C(=O)N1Cc1ccc(-c2ccccc2-c2nnn[nH]2)cc1 [irbesartan]
Activation of PPARγ / luciferase reporter gene activity (in words) (PPARγ): can activate PPARγ; also recorded: found to activate PPARgamma | PPARγ activation (fold activation) (PPARγ; tested at 10 μM, CV-1 cells): 2-3 fold | Insulin sensitivity [7]: improved insulin sensitivity | Lipid levels [7]: failed to improve lipid levels | Adipogenesis (human preadipocytes): can enhance adipogenesis
